The values that follow come from patent publication US7998492B2, “Methods and products related to treatment and prevention of hepatitis C virus infection” (Coley Pharmaceutical Group, Inc., priority 2002, dated 2011).

“Also recorded” adds a separate entry of the source.

In data set [1] the test system is PBMCs from normal or HCV infected subjects. Put plainly: IFN-α secretion by PBMC with Intron A, Ribavirin or CpG alone or in combination (ELISA). It is filed as cell-based, human. From the text:
(§1) All oligonucleotide stocks were resuspended in TE buffer at pH 8.0 (OmniPer®; EM Science, Gibbstown, N.J.). Dilutions of various ODNs were made in RPMI 1640 complete media (Gibco BRL, Grand Island, N.Y.) containing 10% heat inactivated, normal human AB serum (Wisent Inc, St. Bruno, QC) and 1% penicillin/streptomycin (Gibco BRL, Grand Island, N.Y.) just prior to their use in cell assays. For the exogenous IFN-α synergy experiments, Intron A (Interferon Alfa-2b, DIN 02223406, Schering Canada Inc., Pointe-Claire, Quebec, Canada) was added to the ODN solutions to give final concentrations of 125 or 1000 IU/ml. Ribavirin (CAS 36791-04-5, Calbiochem, CN Biosciences Inc., La Jolla, Calif., USA) was reconstituted with sterile distilled water to produce a 500 μm stock and diluted in media as described above, to give a final concentration of 5 μm in wells. Cells were incubated at 37° C. with 5% CO2. After 48 h, cell supernatants were collected from each well and frozen at −80° C.
(§2) Peripheral blood mononuclear cells (PBMCs) were purified by centrifugation over Ficoll-Hypaque (Amersham Pharmacia Biotech, Uppsala, Sweden) at 400×g for, 35 min. Cells were resuspended at a concentration of 10×10^6/ml in RPMI complete media containing 10% normal human AB serum (heat inactivated) and 1% penicillin/streptomycin.
(§3) Freshly isolated PBMCs were resuspended at 10×10^6/ml (2× final concentration) and 100 μl of cells were added to each well of a 96 well flat-bottom plate containing an equal volume of ODN solution (2× final desired concentration). A range of concentrations (1, 3, 6 μg/ml) was tested for each ODN. Cells were incubated at 37° C. with 5% CO2. After 48 h, cell supernatants were collected from each well and frozen at −80° C. until assayed.
(§4) IFN-α, IP-10, IL-10 and IFN-levels in supernatants were measured using commercial ELISA Kits (R&D Systems, Minneapolis, Minn., USA; IP-10, Cat# DIP 100, IL-10, Cat# D1000, IFN-g Cat# DIF50 or PBL Biomedical, IFN-α Cat# 4110S). When measured ELISA values were below the detection limit of the kit as specified by the manufacturer, a value equal to the lowest detectable limit was entered into data tables.

The subject of data set [2] is PBMCs from normal subjects. The data set is described as follows: IFN-α secretion by PBMC from normal subjects after 48 h with CpG ODN (ELISA). It is filed as cell-based, human. As to conditions: for IFN-α secretion level: PBMC from normal volunteers, 48 h, FIG. 1/3; for R, linear regression of number of pDC against amount of IFN-α secreted: normal subjects, pDC number by FACS.
Source text: as §1, §2, §3, §4
A general note: An ELISA detects its analyte on a solid surface through an enzyme-linked reagent.

Data set [3] relates to PBMCs from normal or HCV-infected subjects. The data set is described as follows: IP-10 secretion by PBMC after 48 h with CpG ODN (ELISA). Format: cell-based, human. Particulars: similar in normal subjects and HCV chronic carriers, FIG. 7. The method, then: as §2, §3, §4
Data set [4] shares this test system. Put plainly: IFN-γ secretion by PBMC after 48 h with CpG ODN (ELISA). Format: cell-based, human. Particulars: HCV-infected and normal PBMCs similar, FIG. 5/6. On the procedure:
as §2, §3, §4

Data set [5] concerns B cells in PBMCs from HCV-infected or normal donors. Put plainly: B-cell proliferation (3H-thymidine, stimulation index). Format: cell-based, human. As to conditions: HCV-infected and normal populations, 5 days, FIGS. 8 and 9. On the procedure:
as §2
Cells were isolated as described above and resuspended at 1×10^6/ml in complete RPMI media 100 μl of cells were added to each well of round-bottom 96 well plates. ODN solutions (100 μl) were added to wells to give the selected range of final concentrations (1, 3, 6 μg/ml). Cells were cultured for 5 days and then pulsed with ^3H-Thymidine (1 μCi/well) for 18 h, before harvesting onto filter paper for measuring radioactivity. Results are reported as stimulation index (SI) with respect to untreated media control.

In data set [6] the test system is PBMCs from HCV-infected subjects. The data set is described as follows: IFN-α secretion by PBMC from HCV chronic carriers after 48 h with CpG ODN (ELISA). As to conditions: for R, linear regression of number of pDC against amount of IFN-α secreted: HCV infected subjects, pDC number by FACS; for IFN-α secretion level: PBMC from HCV chronic carriers, 48 h, FIG. 1/3/4. It is filed as cell-based, human.
Source text: as §1, §2, §3, §4

For data set [7] the following is noted: adjuvant to a commercial hepatitis B vaccine, phase I/II; cited from earlier work.

Turning to `NC(=O)c1ncn([C@@H]2O[C@H](CO)[C@@H](O)[C@H]2O)n1` [Ribavirin], the “induction of IFN-α secretion” value in data set [1] (HCV-infected PBMCs, on their own or together, FIG. 11) is reported as “Neither Ribavirin nor Intron A, on their own or together, resulted in the induction of IFN-α secretion”; in data set [1] (PBMCs from normal or HCV infected subjects, alone or in combination) it was “Neither commercial Intron-A (IFN-α-2b) nor Ribavirin, alone or in combination, were capable of inducing IFN-α secretion”. Also, the “effect on the efficacy of CpG” value in data set [1] (combined with CpG ODN) was “reduced the efficacy of CpG”. Also, the immunostimulatory activity entry in data set [1] (human PBMCs) is recorded as “no immunostimulatory activity”. Besides, in data set [1] (in combination with Intron A), the “endogenous IFN-α production” value is “did not enhance endogenous IFN-α production”.

Consider “G-G-GGACGACGTCGTGG-G-G-G-G-G (DNA GGGGACGACGTCGTGGGGGGG; chemistry not given here) [SEQ ID NO. 1, A class CpG ODN]”, for which the IFN-α secretion level entry in data set [2] was “very high levels”; in data set [6] it was “higher levels”. In addition, the “R, linear regression of number of pDC against amount of IFN-α secreted” value is recorded as 0.43 in data set [2] and 0.02 in data set [6]. Further, the IP-10 secretion level entry in data set [3] is listed as “Highest levels”. The IFN-γ secretion level result in data set [4] was “low levels”. In addition, the B cell stimulation result in data set [5] is “poor stimulator of B cells”. In data set [6] (HCV chronic carrier PBMC versus normal PBMC, FIG. 1), the “IFN-α induced relative to the normal level” value is “about 50%”.

Take “TCGTCGTTTTGTCGTTTTGTCGTT [SEQ ID NO. 2]”: the IFN-α secretion level entry is reported as “only low levels” in data set [2], “the same as those obtained with the normal PBMCs” in data set [6] (listed as B) and “lower levels” in data set [6] (listed as Class B). The “function as vaccine adjuvant” value in data set [7] is listed as “functions well as a vaccine adjuvant”. The IP-10 secretion level result in data set [3] is recorded as “lowest”. Also, in data set [4], the IFN-γ secretion level entry was “moderate amounts”. The B cell stimulation entry in data set [5] was “strongly activated B cells”.

Turning to “TCGTCGTTTTCGGCGGCCGCCG (chemistry not given here) [SEQ ID NO. 4, C class CpG ODN]”, the IFN-α secretion level entry in data set [2] is “moderately high levels”; in data set [6] (listed as C), “the same as those obtained with the normal PBMCs; also recorded: higher levels”. Moreover, the “R, linear regression of number of pDC against amount of IFN-α secreted” value was 0.58 in data set [2] and 0.08 in data set [6]. Moreover, the “synergy with exogenous IFN-α for IFN-α secretion” value in data set [1] (PBMCs from HCV infected subjects, combination with Intron-A) was “synergy”. The IP-10 secretion level result in data set [3] is “next highest”. Moreover, the IFN-γ secretion level result in data set [4] is “high concentrations”. For the same molecule, the B cell stimulation entry in data set [5] is “strongly activated B cells”.
